This note sets out measurements from paper PMC11414412, “Design and synthesis new indole-based aromatase/iNOS inhibitors with apoptotic antiproliferative activity” (Frontiers in Chemistry, 2024).

Data set [1] in a line: Cell viability assay (MTT) on normal mammary epithelial cells. As to conditions: human, MCF-10A normal mammary gland epithelial cells, MCF-10A normal cells, 4 days incubation. In kind it is cell-based, human. As for the experimental part:
This test investigates the effects of the new compounds 3–16 on normal cell lines to determine their safety. The normal human mammary gland epithelial (MCF-10 A) cell line was used to test the viability of the tested compounds. After 4 days of incubation on MCF-10 A cells within 50 µM of each investigated compound, cell viability was determined using the MTT assay ([Gomaa et al., 2020]; [Marzouk et al., 2020]).
The normal human mammary gland epithelial (MCF-10A) cell line was used to test the viability of the tested compounds. After 4 days of incubation on MCF-10A cells within 50 µM of each investigated compound, cell viability was determined using the MTT assay ([Gomaa et al., 2020]; [Marzouk et al., 2020]). Refer to Supplementary Appendix SA1 (supp. File) for more details.
4.2. Biological evaluation
4.2.1 Cell Viability assay (MTT assay)
MTT assay was performed to investigate the effect of the synthesized compounds on mammary epithelial cells (MCF-10A). The cells were propagated in medium consisting of Ham's F-12 medium/ Dulbecco's modified Eagle's medium (DMEM) (1:1) supplemented with 10% foetal calf serum, 2 mM glutamine, insulin (10 μg/mL), hydrocortisone (500 ng/mL) and epidermal growth factor (20 ng/mL). Trypsin ethylenediamine tetra acetic acid (EDTA) was used to passage the cells after every 2-3 days. 96-well flat-bottomed cell culture plates were used to seed the cells at a density of 10^4 cells mL-1. The medium was aspirated from all the wells of culture plates after 24 h followed by the addition of synthesized compounds (in 200 μL medium to yield a final concentration of 0.1% (v/v) dimethyl sulfoxide) into individual wells of the plates. Four wells were designated to a single compound. The plates were allowed to incubate at 37°C for 96 h. Afterwards, the medium was aspirated and 3-[4,5-dimethylthiazol-2-yl]-2,5-diphenyltetrazolium bromide (MTT) (0.4 mg/mL) in medium was added to each well and subsequently incubated for 3 h. The medium was aspirated and 150 μL dimethyl sulfoxide (DMSO) was added to each well. The plates were vortexed followed by the measurement of absorbance at 540 nm on a microplate reader. The results were presented as inhibition (%) of proliferation in contrast to controls comprising 0.1%

Data set [2] relates to A-549 cells. Description: Antiproliferative assay, A-549. In kind it is cell-based. Conditions: Homo sapiens, A549; A-549 lung cancer cell line; read-out: Antiproliferative activity IC50 ± SEM, A-549. As for the experimental part: 4.2.2. Assay for antiproliferative effect
To explore the antiproliferative potential of compounds propidium iodide fluorescence assay was performed using different cell lines such as Panc-1 (pancreas cancer cell line), MCF-7 (breast cancer cell line), HT-29 (colon cancer cell line) and A-549 (epithelial cancer cell line), respectively. To calculate the total nuclear DNA, a fluorescent dye (propidium iodide, PI) is used which can attach to the DNA, thus offering a quick and precise technique. PI cannot pass through the cell membrane and its signal intensity can be considered as directly proportional to quantity of cellular DNA. Cells whose cell membranes are damaged or have changed permeability are counted as dead ones. The assay was performed by seeding the cells of different cell lines at a density of 3000-7500 cells/well (in200μl medium) in culture plates followed by incubation for 24h at 37 °C in humidified 5%CO2/95% air atmospheric conditions. The medium was removed; the compounds were added to the plates at 10 μM concentrations (in 0.1% DMSO) in triplicates, followed by incubation for 48h. DMSO (0.1%) was used as control. After incubation, medium was removed followed by the addition of PI (25 μl, 50μg/mL in water/medium) to each well of the plates. At - 80 °C, the plates were allowed to freeze for 24 h, followed by thawing at 25 °C. A fluorometer (Polar-Star BMG Tech) was used to record the readings at excitation and emission wavelengths of 530 and 620 nm for each well. The percentage cytotoxicity of compounds was calculated using […]
Where ATC= Absorbance of treated cells and AC= Absorbance of control. Erlotinib was used as positive control in the assay.

Data set [3] addresses T1, iNOS (Homo sapiens, UniProt P35228).
T1 construct: purchased Enzo Life Sciences, Inc. (New York, USA)
Description: NOS inhibition assay (L-citrulline, fluorometric detection), iNOS. In kind it is biochemical. As to conditions: for inhibition at 1 µM: compound at 1 µM; for eNOS/iNOS selectivity: ratio of eNOS IC50 to iNOS IC50. As for the experimental part: The investigated compounds were tested at 1 µM against the iNOS and 10 µM against the eNOS to determine their isoform selectivity. Because of its critical role in cardiovasculature, inhibiting the constitutive enzyme eNOS should be avoided.
Refer to Supplementary Appendix SA1 for more details.
4.2.4. NOS inhibition assay
Recombinant human iNOS was purchased from Enzo Life Sciences, Inc. (New York, USA).
Recombinant bovine eNOS was purchased from Cayman Chemical (Ann Arbor, USA). To measure iNOS activity, 10 μL of enzyme stock solution were added to 80 μL of 2-[4-(2-hydroxyethyl) piperazin-1-yl]ethanesulfonic acid (HEPES) buffer pH = 7.4, 100 mM, containing 0.1 mM CaCl2, 1 mM D,L-dithiothreitol (DTT), 0.5 mg/mL BSA, 10 μM flavin mononucleotide (FMN), 10 μM flavin adenine dinucleotide (FAD), 30 μM tetrahydrobiopterin (BH4), 10 μg/mL calmodulin (CaM), 10 μM L-Arg. For the eNOS activity evaluation, 25 μL of the enzyme stock solution were added to 65 μL of HEPES buffer containing 2 mM CaCl2 and the same cofactors […]
μM) were added to the enzyme assay solution, followed by pre -incubation of 15 min at 37 ◦C.
Each reaction was initiated by the addition of 10 μL of NADPH 7.5 mM, carried out at 37 ◦C for 30 min, and stopped by adding 500 μL of ice -cold CH3CN. The mixture was brought to dryness under vacuum and eventually stored at – 20 ◦C, before the HPLC analysis. […]

Data set [4] concerns the target T2, aromatase (CYP19) (Homo sapiens, UniProt P11511).
T2 sequence (P11511 1-503): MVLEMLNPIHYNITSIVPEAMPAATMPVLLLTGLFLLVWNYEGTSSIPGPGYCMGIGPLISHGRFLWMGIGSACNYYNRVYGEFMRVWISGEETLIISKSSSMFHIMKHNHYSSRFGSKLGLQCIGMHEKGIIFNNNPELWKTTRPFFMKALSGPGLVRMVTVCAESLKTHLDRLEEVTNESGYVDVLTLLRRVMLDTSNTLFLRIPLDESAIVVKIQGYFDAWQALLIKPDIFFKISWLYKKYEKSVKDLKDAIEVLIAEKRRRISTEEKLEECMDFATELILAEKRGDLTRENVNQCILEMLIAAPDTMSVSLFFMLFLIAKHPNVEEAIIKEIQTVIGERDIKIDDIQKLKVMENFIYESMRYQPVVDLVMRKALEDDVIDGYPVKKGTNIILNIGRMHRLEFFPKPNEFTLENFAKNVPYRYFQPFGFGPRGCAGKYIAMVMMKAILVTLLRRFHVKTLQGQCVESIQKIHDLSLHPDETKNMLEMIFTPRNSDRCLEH
Description: Aromatase inhibitory assay (Gentest kit, DBF fluorometric substrate).
Description: The aromatase inhibitory effect was performed using the method reported by Stressor et al.[35].
This method was carried out according to the Gentest kit using CYP19 enzyme and DBF as a
fluorometric substrate. DBF was dealkylated by aromatase and then hydrolyzed to give the
fluorescein product. Briefly, 100 μL of cofactor, containing 78.4 μL of 50 mM phosphate buffer
(pH 7.4); 20 μL of 20x NADPH-generating system (26 mM NADP+, 66 mM glucose-6-phosphate,
and 66 mM MgCl2); and 1.6 μL of 100 U/mL glucose-6-phosphate dehydrogenase, was pipetted
into a 96-well plate and preincubated in 37 °C (water bath) for 10 min. The reaction was initiated
by addition of 100 μL of enzyme/substrate mixture containing 77.3 μL of 50 mM
phosphate buffer (pH 7.4); 12.5 μL of 16 pmol/mL CYP19; 0.2 μL of 0.2 mM DBF, and 10 μL of
0.25 mM diluted tested sample or 10% DMSO as a negative control or letrozole as a positive
control. Fluorescence signal was recorded using an excitation wavelength of 490 nm and emission
Percentage of inhibition (%inhibition) was calculated
as shown in Equation (1).
assayed in triplicate. Finally, IC50 values were determined by plot of concentrations versus %

A value given as a limit tells only on which side of the number the result lay.

One may read the viability as a per cent measure of how many cells are alive, often set against a control. The low end stands for more harm to the cells, the high end for less harm to the cells. A word on the IC50: it is the concentration needed to halve the response being measured. What is called inhibition is the share of the control response that was lost under treatment. A lower inhibition goes with a weak effect.

`CCc1c2cc(Cl)ccc2n2c(C)c(C(=O)OCc3ccccc3)[nH]c(=O)c12` [Compound 5, benzyl 8-chloro-10-ethyl-4-methyl-1-oxo-1,2-dihydropyrazino [1,2-a]indole-3-carboxylate] registered a viability at 4 days, 50 µM in data set [1] of 90%. The 50% inhibitory concentration (IC50) amounted to 31 ± 3 nM in data set [2] and 20 ± 2 nM in data set [4]. Further, in data set [3], at 1 µM the inhibition was 62 ± 2%.
On the same counts, the results for `CCc1c2cc(Cl)ccc2n2c(C)c(C(=O)NCc3ccccc3)[nH]c(=O)c12` [Compound 7, N-benzyl-8-chloro-10-ethyl-4-methyl-1-oxo-1,2-dihydropyrazino [1,2-a]indole-3-carboxamide] are 88%, 28 ± 2 nM, 15 ± 1 nM and 73 ± 2%.
In data set [1], `CCc1c2cc(Cl)ccc2n2cc(Cc3ccccc3)n(C)c(=O)c12` [Compound 12, 3-Benzyl-8-chloro-10-ethyl-2-methylpyrazino[1,2-a]indol-1(2H)-one] showed a viability at 4 days, 50 µM of 89%. In addition, in data set [2], the IC50 is 23 ± 2 nM. In addition, in data set [3], the half-inhibitory concentration (IC50) was found to be 75 ± 2 nM, the inhibition at 1 µM came out at 87 ± 3% and the eNOS/iNOS selectivity is more than 670. Further, in data set [4], the “Fold less potent than Letrozole (aromatase IC50)” value amounted to 5 fold, the “Fold more potent than Ketoconazole (aromatase IC50)” value was “at least 10 fold” and the IC50 came to 10 ± 1 nM.
Compound `CCc1c2cc(Cl)ccc2n2cc(-c3ccccc3)[nH]c(=O)c12` [Compound 16, 8-Chloro-10-ethyl-3-phenylpyrazino [1,2-a]indol-1(2H)-one] had a viability at 4 days, 50 µM in data set [1] of 91%. In addition, the 50% inhibitory concentration (IC50) in data set [2] was found to be 25 ± 2 nM. Moreover, in data set [3], the concentration for half-maximal inhibition (IC50) was determined as 98 ± 3 nM, 1 µM produced 81 ± 3% inhibition and the eNOS/iNOS selectivity was more than 510. For the same compound, the IC50 in data set [4] was found to be 12 ± 1 nM.
